Read-outs that look alike come from different tables or passages of the source.
How the values were obtained:
[1] = tested on: Tb927.8.6290 overexpressing cell lines (WT); experiment: Drug sensitivity, line overexpressing Tb927.8.6290 WT; format: cell-based, T. b. brucei; settings: for EC50: Trypanosoma brucei
Description: (§1) Drug sensitivity assays were carried out with BSF T. b. brucei “single marker” S427 or BSF T. b. brucei, Lister 427, MiTat 1.2, clone 221a 2T1 cells,[45] cells grown at 37 °C with 5% CO2 in an HMI-9T medium[46] as previously described.[47] 2T1 cells were initially maintained with 1 μg mL^–1 puromycin and 1 μg mL^–1 phleomycin prior to transfection or 2.5 μg mL^–1 hygromycin and 1 μg mL^–1 phleomycin after transfection. Induction of overexpression was achieved by the addition of 1 μg mL^–1 tetracycline to the culture medium.
(§2) The following primers were used to PCR amplify Tb927.8.6290 from genomic DNA isolated from wild-type and 38-resistant trypanosomes 5′-[…]-3′ (PacI site in bold) and 5′-[…]-3′ (BamHI site in bold). The PCR products (1272 bp) were then cloned into the pRPa plasmid.[53] The accuracy of the plasmid constructs was confirmed by in-house Sanger sequencing and then linearized with AscI prior to transfection. The linearized plasmids were introduced into 2T1 T. b. brucei cells following removal of puromycin from the media and selected with 2.5 μg mL^–1 hygromycin and 1 μg mL^–1 phleomycin. Two independent clones were selected for further studies.

T. brucei RES I = experiment: Drug sensitivity, compound 38-resistant clone RES I; format: cell-based, T. b. brucei
Description: as §1
(§3) Compound-resistant cell lines were generated by subculturing a clone of T. brucei in the continuous presence of 38. Starting at sublethal concentrations, drug concentrations in two independent cultures were increased in a stepwise manner, usually 2-fold. When parasites were able to survive and grow in concentrations of drugs equivalent to more than 10 times the established EC50 value, the resulting cell lines were cloned by limiting dilution in the presence of the compound. Two clones (RES I-II) were selected for further biological study. A standard alkaline lysis protocol was used to isolate genomic DNA from compound-resistant bloodstream T. brucei parasites (∼1 × 10^8). Whole genome sequencing was performed using a DNB-seq next-generation sequencing platform (BGI, Hong Kong). Sequencing reads (150 bp) were aligned to the T. brucei TREU927 genome (v39; tritrypDB) using Bowtie2[48] and Samtools[49] software. […] Samtools and BCFtools[52] (mpileup) were used to call SNP and indels compared with the wild-type starter clone, where the overall quality score (QUAL) was >100. Artemis[50] was used to analyze chromosome and gene copy number variation, as well as visualization of SNPs.

[2] = tested on: Tb927.8.6290 overexpressing cell lines (V241F/A258V); experiment: Drug sensitivity, line overexpressing Tb927.8.6290 V241F/A258V; format: cell-based, T. b. brucei; settings: for EC50: Trypanosoma brucei
Description: as §1, §2

[3] = Tolerability / maximum tolerated dose; settings: NMRI mice, IP
[4] = Kinetic aqueous solubility (laser nephelometry); format: physicochemical; settings: Milli-Q water with 2.5% DMSO
Description: The kinetic aqueous solubility of the test compounds was measured using laser nephelometry. Compounds were subject to serial dilution from 10 to 0.5 mM in DMSO. An aliquot was then mixed with Milli-Q water to obtain an aqueous dilution plate with a final concentration range of 13–250 μM, with a final DMSO concentration of 2.5%. Triplicate aliquots were transferred to a flat-bottomed polystyrene plate which was immediately read on the NEPHELOstar (BMG Lab Technologies). The amount of laser scatter caused by insoluble particulates (relative nephelometry units, RNUs) was plotted against compound concentration using a segmental regression fit, with the point of inflection being quoted as the compound’s aqueous solubility (μM).

Pharmacokinetics in rats = format: in vivo, Sprague Dawley rats
Description: To determine compound exposure, compounds were dosed by gavage (16, 38) at 10 mg kg^–1 free base (16, 38), dose volume; and 5 mL kg^–1 (16, 38), dose vehicle (10% DMSO/40% PEG400/50% Milli-Q) to female NMRI mice, n = 3/dose level (16), or Sprague Dawley rats (38). Blood samples were taken from each mouse/rat at 5, 15, and 30 min, 1, 2, 4, 6, and 8 h postdose and mixed with two volumes of distilled water. After suitable sample preparation, the concentration of the test compound in blood was determined by UPLC–MS/MS using a Quattro Premier XE (Waters, USA). Pharmacokinetic parameters were derived from the mean blood concentration–time curve using PKsolutions software v 2.0 (Summit Research Services, USA).

T. brucei wild-type = experiment: Drug sensitivity, wild-type parental line; format: cell-based, T. b. brucei; settings: Trypanosoma brucei; weighted mean of ≥3 independent experiments
Description: as §1, §3

T. brucei RES II = experiment: Drug sensitivity, compound 38-resistant clone RES II; format: cell-based, T. b. brucei
Description: as §1, §3

stage 2 HAT = experiment: Stage 2 model of CNS disease; format: in vivo
[5] = Equilibrium dialysis, free fraction in plasma; format: in vitro ADME, mouse; settings: matrix not given
Description: In brief, a 96-well equilibrium dialysis apparatus was used to determine the free fraction in plasma and the brain (HT Dialysis LLC, Gales Ferry, CT). Isotonic buffer was prepared using 8.69 g of Na2HPO4, 1.9 g of KH2PO4, and 4.11 g of NaCl dissolved in 1 L of Milli-Q water, and the pH was adjusted to 7.4. Artificial CSF was prepared using 3.652 g of NaCl, 93.2 mg of KCl, 119.96 mg of MgCl2, 92.61 mg of CaCl2, and 268 mg of Na2HPO4 heptahydrate dissolved in 0.5 L of water, and the pH was adjusted to 7.4. Membranes [12–14 (plasma) or 6–9 (brain) kDA cutoff] were conditioned in deionized water for 60 min, followed by conditioning in 80:20 deionized water/ethanol for 20 min, and then rinsed in isotonic buffer (plasma) or […] (brain) before use. Female CD1 mouse plasma was defrosted and centrifuged for 10 min at 3000 rpm (Allegra X12-R, Beckman Coulter, USA). The control mouse brain was homogenized in two volumes of artificial CSF in a Covaris S2 acoustic homogenizer. Plasma or brain homogenate was spiked with the test compound (10 μg mL^–1), and 150 μL aliquots (n = 3 replicate determinations) were loaded into the 96-well equilibrium dialysis plate. Dialysis versus 150 μL of isotonic buffer (plasma) or artificial CSF (brain) was carried out for 5 h in a temperature-controlled incubator at 37 °C (Barworld Scientific Ltd, UK) using an orbital microplate shaker at 125 rpm (Barworld Scientific Ltd, UK). At the end of the incubation period, aliquots of plasma/homogenized brain or buffer were transferred to a clean 96-well plate, and the composition in each well was balanced with control fluid, such that the volume of buffer to the matrix was the same. Sample extraction was performed by the addition of 400 μL of acetonitrile containing an appropriate internal standard. Samples were allowed to mix for 1 min and then centrifuged at 3000 rpm in 96-well blocks for 10 min (Allegra X12-R, Beckman Coulter, USA). All samples were analyzed by means of UPLC/MS/MS on a Quattro Premier XE or Micro TQs mass spectrometer (Waters Corporation, USA). The unbound fraction was determined as the ratio of the peak area in the buffer to that in the matrix.

[6] = relative to the parental wild-type, in brackets
[7] = male, Sprague Dawley, whole blood, rat, PO, 10 mg kg^–1

What does the source list for `CC(C)(O)CC(=O)c1sc(Nc2ccc(F)c(F)c2)nc1N` [Compound 38, 1-(4-Amino-2-((3,4-difluorophenyl)amino)thiazol-5-yl)-3-hydroxy-3-methylbutan-1-one]?
EC50 ([1]; read-out: EC50, WT +TET): 10000 ± 250 nM; EC50 ([1]; read-out: EC50, WT –TET): 400 ± 25 nM; fold shift, WT ([1]; −TET vs +TET EC50, in brackets): 26; EC50 (T. brucei RES I; Trypanosoma brucei, read-out: EC50, RES I): 2200 ± 84 nM; fold resistance, RES I (T. brucei RES I; [6]): 7; EC50 ([2]; read-out: EC50, V241F/A258V +TET): 12000 ± 690 nM; EC50 ([2]; read-out: EC50, V241F/A258V –TET): 270 ± 18 nM; fold shift, V241F/A258V ([2]; −TET vs +TET EC50, in brackets): 45; maximum dose chosen following maximum tolerated dose study [3]: 100 mg kg^–1; solubility [4]: > 100 µg/mL; free blood Cmax (Pharmacokinetics in rats; male SD rats, 10 mg kg^–1 PO): 195 ng mL^–1; AUC (Pharmacokinetics in rats; [7]): 7830 ng·h/mL; Cmax (Pharmacokinetics in rats; [7]): 1400 ng/mL; Tmax (Pharmacokinetics in rats; [7]): 4 h; EC50 (T. brucei wild-type): 310 ± 4 nM; EC50 (T. brucei RES II; Trypanosoma brucei, read-out: EC50, RES II): 8200 ± 490 nM; fold resistance, RES II (T. brucei RES II; [6]): 26

With “(4-Amino-2-(cyclohexylamino)thiazol-5-yl)(2,6-difluorophenyl)methanone [Compound 16]” as the compound, how does the “efficacy in stage 2 disease model” value (stage 2 HAT) read?
The value was “not efficacious”.

What about the “Fu (free fraction)” value [5] of the same compound?
Its value is 0.03.
